{"source": "ChEMBL document CHEMBL3864150", "about": "“Synthesis and cytotoxicity study of novel 3-(triazolyl)coumarins based fluorescent scaffolds” (Bioorg Med Chem Lett, 2016)", "key": {"[1]": {"assay": "Cytotoxicity against human HeLa cells after 24 hrs by MTT assay", "type": "functional, cell-based"}, "HeLa": {"system": "HeLa", "assay": "Selectivity factor, ratio of IC50 for human MRC5 cells to IC50 for human HeLa cells"}, "MCF7": {"system": "MCF7", "assay": "Selectivity factor, ratio of IC50 for human MRC5 cells to IC50 for human MCF7 cells"}, "[2]": {"assay": "Cytotoxicity against human MCF7 cells after 24 hrs by MTT assay", "type": "functional, cell-based", "conditions": "MCF7, 24 h; call rule not given here"}, "[3]": {"assay": "Cytotoxicity against human MRC5 cells after 24 hrs by MTT assay"}, "[4]": {"assay": "Drug uptake in human MCF7 cells at 20 uM after 2 hrs by fluorescence microscopy", "type": "ADME, cell-based", "conditions": "mcf7, 2 h"}}}
{"molecule": "NCCC(=O)N1Cc2ccccc2-c2nnn(-c3cc4ccccc4oc3=O)c2-c2ccccc21", "values": [{"measurement": "IC50", "setting": "[1]", "result": 19.8, "unit": "µM"}, {"measurement": "Ratio IC50", "setting": "HeLa", "result": 5.55}, {"measurement": "Ratio IC50", "setting": "MCF7", "result": 8.68}, {"measurement": "IC50", "setting": "[2]", "result": 12.7, "unit": "µM"}, {"measurement": "IC50 at 24 h", "setting": "[3]", "result": 110, "unit": "µM"}]}
{"molecule": "NCCC(=O)N1Cc2ccccc2-c2nnn(-c3cc4cc(Br)ccc4oc3=O)c2-c2ccccc21", "values": [{"measurement": "IC50", "setting": "[1]", "result": 18.2, "unit": "µM"}, {"measurement": "Ratio IC50", "setting": "HeLa", "result": 5.49}, {"measurement": "Ratio IC50", "setting": "MCF7", "result": 9.4}, {"measurement": "IC50", "setting": "[2]", "result": 10.7, "unit": "µM"}, {"measurement": "IC50 at 24 h", "setting": "[3]", "result": 100, "unit": "µM"}]}
{"molecule": "[N-]=[N+]=Nc1cc2cc(Br)ccc2oc1=O", "values": [{"measurement": "IC50", "setting": "[1]", "result": 28.3, "unit": "µM"}, {"measurement": "Ratio IC50", "setting": "HeLa", "result": 2.48}, {"measurement": "Ratio IC50", "setting": "MCF7", "result": 2.97}, {"measurement": "IC50", "setting": "[2]", "result": 23.7, "unit": "µM"}, {"measurement": "IC50 at 24 h", "setting": "[3]", "result": 70.4, "unit": "µM"}]}
{"molecule": "[N-]=[N+]=Nc1cc2ccccc2oc1=O", "values": [{"measurement": "IC50", "setting": "[1]", "result": 29.6, "unit": "µM"}, {"measurement": "Ratio IC50", "setting": "HeLa", "result": 2.37}, {"measurement": "Ratio IC50", "setting": "MCF7", "result": 2.63}, {"measurement": "IC50", "setting": "[2]", "result": 26.7, "unit": "µM"}, {"measurement": "IC50 at 24 h", "setting": "[3]", "result": 70.2, "unit": "µM"}]}
{"molecule": "COc1cccc2c1C(=O)c1c(O)c3c(c(O)c1C2=O)C[C@@](O)(C(=O)CO)C[C@@H]3O[C@H]1C[C@H](N)[C@H](O)[C@H](C)O1", "note": "[DOXORUBICIN]", "values": [{"measurement": "IC50", "setting": "[1]", "result": 5.2, "unit": "µM"}, {"measurement": "IC50 at 24 h", "setting": "[3]", "result": 70.6, "unit": "µM"}]}
{"molecule": "COc1cccc2cc(-n3nnc4c3-c3ccccc3N(C(=O)CCN)Cc3ccccc3-4)c(=O)oc12", "values": [{"measurement": "IC50", "setting": "[1]", "result": 26.2, "unit": "µM"}, {"measurement": "Ratio IC50", "setting": "HeLa", "result": 3.54}, {"measurement": "Ratio IC50", "setting": "MCF7", "result": 4.24}, {"measurement": "IC50", "setting": "[2]", "result": 21.9, "unit": "µM"}, {"measurement": "IC50 at 24 h", "setting": "[3]", "result": 92.8, "unit": "µM"}]}
{"molecule": "[N-]=[N+]=Nc1cc2ccc(O)cc2oc1=O", "values": [{"measurement": "IC50", "setting": "[1]", "result": 41.6, "unit": "µM"}, {"measurement": "Ratio IC50", "setting": "HeLa", "result": 1.5}, {"measurement": "Ratio IC50", "setting": "MCF7", "result": 1.63}, {"measurement": "IC50", "setting": "[2]", "result": 38.4, "unit": "µM"}, {"measurement": "IC50 at 24 h", "setting": "[3]", "result": 62.7, "unit": "µM"}]}
{"molecule": "[N-]=[N+]=Nc1cc2cc(Cl)cc(Cl)c2oc1=O", "values": [{"measurement": "IC50", "setting": "[1]", "result": 27.6, "unit": "µM"}, {"measurement": "Ratio IC50", "setting": "HeLa", "result": 2.43}, {"measurement": "Ratio IC50", "setting": "MCF7", "result": 3.6}, {"measurement": "IC50", "setting": "[2]", "result": 18.6, "unit": "µM"}, {"measurement": "IC50 at 24 h", "setting": "[3]", "result": 67.2, "unit": "µM"}]}
{"molecule": "NCCC(=O)N1Cc2ccccc2-c2nnn(-c3cc4ccc(OCCBr)cc4oc3=O)c2-c2ccccc21", "values": [{"measurement": "IC50", "setting": "[1]", "result": 19.5, "unit": "µM"}, {"measurement": "Ratio IC50", "setting": "HeLa", "result": 6.19}, {"measurement": "Ratio IC50", "setting": "MCF7", "result": 6.52}, {"measurement": "IC50", "setting": "[2]", "result": 18.5, "unit": "µM"}, {"measurement": "IC50 at 24 h", "setting": "[3]", "result": 121, "unit": "µM"}]}
{"molecule": "COc1cccc2cc(N=[N+]=[N-])c(=O)oc12", "values": [{"measurement": "IC50", "setting": "[1]", "result": 36.4, "unit": "µM"}, {"measurement": "Ratio IC50", "setting": "HeLa", "result": 1.61}, {"measurement": "Ratio IC50", "setting": "MCF7", "result": 1.85}, {"measurement": "IC50", "setting": "[2]", "result": 31.5, "unit": "µM"}, {"measurement": "IC50 at 24 h", "setting": "[3]", "result": 58.7, "unit": "µM"}]}
{"molecule": "NCCC(=O)N1Cc2ccccc2-c2nnn(-c3cc4ccc(O)cc4oc3=O)c2-c2ccccc21", "values": [{"measurement": "IC50", "setting": "[1]", "result": 21.1, "unit": "µM"}, {"measurement": "Ratio IC50", "setting": "HeLa", "result": 4.27}, {"measurement": "Ratio IC50", "setting": "MCF7", "result": 4.9}, {"measurement": "IC50", "setting": "[2]", "result": 18.4, "unit": "µM"}, {"measurement": "IC50 at 24 h", "setting": "[3]", "result": 90.2, "unit": "µM"}, {"measurement": "Drug uptake", "setting": "[4]", "result": "Active"}]}
{"molecule": "NCCC(=O)N1Cc2ccccc2-c2nnn(-c3cc4cc(Cl)cc(Cl)c4oc3=O)c2-c2ccccc21", "values": [{"measurement": "IC50", "setting": "[1]", "result": 17.5, "unit": "µM"}, {"measurement": "Ratio IC50", "setting": "HeLa", "result": 10.58}, {"measurement": "Ratio IC50", "setting": "MCF7", "result": 18.84}, {"measurement": "IC50", "setting": "[2]", "result": 9.83, "unit": "µM"}, {"measurement": "IC50 at 24 h", "setting": "[3]", "result": 185, "unit": "µM"}, {"measurement": "Drug uptake", "setting": "[4]", "result": "Active"}]}
